# Test results as given in patent US11771730B2, “Combination of Rhodiola and Astragalus for the treatment of neurodegenerative diseases” (HUMAN BY NATURE, priority 2018, dated 2023).
# Columns and labels:
# [1] = test system: differentiated SH-SY5Y (cells) exposed to Aftin-5; assay: Curative test, Alzheimer model induced by Aftin-5 (10 μM): neurite length and cell counts; type: cell-based, human; settings: 10 μM Aftin-5 for 48 hours
# Experimental: All tests were performed in three technical replicates using 96-well microplates. After inoculation, SH-SY5Y cells were differentiated by exposure to retinoic acid (10 μM) for 4 days.
# After each test, the cells were fixed using a mixture of methanol and acetone at room temperature for 5 minutes, before staining the nuclei with Hoechst and immunostaining the B3 tubulin (secondary antibody conjugated to an Alexa 488 fluorochrome).
# Models of neurodegenerative diseases can be established in the laboratory using differentiated neuronal cell lines. Using chemical inducers (Aftin-5, in this case), a model of Alzheimer's disease can be obtained with the human neuroblastoma cell line SH-SY5Y. The neuroprotective and curative properties of the combination of extracts are evaluated following neurotoxic aggression by counting neurons and measuring the length of neurites.
# The cells were exposed for 2 days with 10 μM of Aftin-5 alone. […] After fixation and labeling, neurite outgrowth and cell counts were evaluated using MetaXpress (Molecular Devices).
# The images were obtained using an ImageXpress® Micro XLS (Molecular Devices) automated microscope with a 20× objective. […] Four fields per well were recorded and analyzed individually.
# The images were analyzed using MetaXpress (Molecular Devices) software.
# [2] = test system: DNA repair systems in HepG2 cells; assay: DNA repair (Excision/Resynthesis, BER and NER) on lesion plasmid chip with extracts of treated HepG2 cells; type: cell-based; settings: EMS alone
structure (smiles),measurement,setting,value
CC[C@H](CO)Nc1nc(N(C)c2ccccc2)c2ncn(C(C)C)c2n1 [Aftin-5],neurite length compared to the control (inducer alone),[1],significant reduction in neurite length
"CCOS(C)(=O)=O [EMS, ethyl methane sulfonate]","effect of genotoxic on repair of photoproducts (CPD-64), Nucleotide Excision Repair (NER)",[2],not affected
same,effect of genotoxic on Basic Excision Repair (BER),[2]; at least at the highest concentration tested (1 mM),exclusively stimulates Basic Excision Repair (BER)
